According to patent US6538035B2, “Use of tolterodine to treat asthma” (Pharmacia & Upjohn Company, priority 2000, dated 2003):

What was measured:
asthma = experiment: treatment of a patient with asthma by inhalation, morning peak flow; format: in vivo, human; conditions: person
Procedure: A person with a history of asthma with a morning peak flow of less than 2 l/sec is treated with 2-(diisopropylamino)ethyl-1-phenylcyclopentanecarboxylate powder 0.1 mg every 8 hr continuously. Treatment improves the peak flow to 4-5 l/sec.
A person with a history of severe asthma with a morning peak flow of 5 l/sec is treated with tolterodine powder 6 mg once a day continuously. After a week of treatment the peak flow improves to 9 l/sec.
A person with a history of severe asthma with a morning peak flow of less than 3 l/sec is treated with tolterodine aerosol 2 mg three times daily continuously. After a week of treatment the peak flow improves to 6 l/sec.

chronic COPD = experiment: treatment of a patient with chronic COPD by inhalation; format: in vivo, human; conditions: person
Procedure: A person with a history of chronic COPD with FEV1 of 1.5 liters is treated with tolterodine aerosol 1 mg every 12 hr continuously for dyspnea. After two weeks of therapy dyspnea tolerance is improved.
A person with a history of chronic COPD with FEV1/FVC of 60% liters is treated with hydroxytolterodine aerosol 2 mg every 8 hr continuously for dyspnea. After a week of treatment the FEV1/FVC ratio improves to about 65%.

CC(C)N(CCOC(=O)C1(c2ccccc2)CCCC1)C(C)C [2-(diisopropylamino)ethyl-1-phenylcyclopentanecarboxylate]
peak flow (asthma; asthma, baseline morning peak flow less than 2 l/sec, powder 0.1 mg every 8 hr continuously): 4 to 5 L/s

CC(C)N(CC[C@H](c1ccccc1)c1cc(CO)ccc1O)C(C)C [hydroxytolterodine, 2-[(1R)-3-(diisopropylamino)-1-phenylpropyl]-4-(hydroxymethyl)phenol]
FEV1/FVC ratio (chronic COPD; baseline FEV1/FVC of 60%, aerosol 2 mg every 8 hr continuously, after a week of treatment): about 65%

Cc1ccc(O)c([C@H](CCN(C(C)C)C(C)C)c2ccccc2)c1 [tolterodine, 2-[(1R)-3-(diisopropylamino)-1-phenylpropyl]-4-methylphenol]
dyspnea tolerance (chronic COPD; FEV1 of 1.5 liters, aerosol 1 mg every 12 hr continuously, after two weeks of therapy): improved | peak flow (asthma; severe asthma, baseline morning peak flow 5 l/sec, powder 6 mg once a day continuously, after a week): 9 L/s | peak flow (asthma; severe asthma, baseline morning peak flow less than 3 l/sec, aerosol 2 mg three times daily continuously, after a week): 6 L/s
